Experimental data published in US4705777A, “Cationic oligopeptides having microbicidal activity” (priority 1985, dated 1987).

Key:
VSV = format: cell-based, Vesicular stomatitis virus; conditions: 10 IU/ml, human GM 2504 fibroblast cell line
HSV-1 = assay: Virus yield reduction, HSV-1; format: cell-based, Herpes simplex, Type 1; conditions: 100 IU/ml, human GM 2504 fibroblast cell line
[1] = test system: Staphylococcus epidermidis UCLA-622; assay: Antibacterial activity of rabbit granulocyte peptides (Table III), S. epidermidis; format: cell-based; conditions: 50 μg/ml, 20 min, 37° C., 10 mM sodium phosphate buffer pH 7.4
Experimental: (§1) The procedure parallels that reported in Lehrer et al., Infection and Immunity (1983) 42:10-14. […] The subculture was grown at 37° C. for 4 h with shaking to provide mid-logarithmic phase organisms that were washed twice with buffer by centrifugation (2000×g, 10 min), and then quantitated spectrophotometrically at 620 nm, with reference to previously established CFU/Optical Density relationships. Bacteria were suspended and experiments were performed in 10 mM sodium phosphate buffer, pH 7.4. In some experiments, buffers were supplemented with 0.14 M NaCl ("high" ionic strength). […] In some experiments, 10 mM phosphate buffer with a pH of 5.8 and conductivity of 1.36 mMHO was used. Peptide "stock solutions" were prepared at 500 μg/ml (microbiuret assay) in 0.01% acetic acid, and stored at -20° C. Typically, incubation mixtures contained 1×10^5 bacterial CFU and 5 μg of peptide in 100 μl of buffer. After incubation for 20 min at 37° C., 900 μl of the same buffer was added, and two additional serial tenfold dilutions were made with that buffer. Duplicate 100 μl aliquots from the three serial dilutions were spread over appropriate nutrient agar plates and incubated for 24-72 h to insure full colony development. Killing of microorganisms was expressed as the logarithm10 No /N, where No represented the initial colony count and N represented the colony count after incubation with peptide. There was no significant alteration in colony count when any of the test organisms were exposed to peptide-free buffer for 20 min.

[2] = test system: Pseudomonas aeruginosa PAO 579; assay: Antibacterial activity of rabbit granulocyte peptides (Table III), P. aeruginosa; format: cell-based; conditions: 50 μg/ml, 20 min; for Bactericidal activity log10 No /N, Pseudomonas aeruginosa PAO 579, pH 5.8: 10 mM phosphate buffer pH 5.8; for Bactericidal activity log10 No /N, Pseudomonas aeruginosa PAO 579: 37° C., 10 mM sodium phosphate buffer pH 7.4; for Bactericidal activity log10 No /N, Pseudomonas aeruginosa PAO 579, "High" ionic strength: buffer pH 7.4 supplemented with 0.14 M NaCl
Experimental: as §1

[3] = test system: Staphylococcus aureus 566; assay: Antibacterial activity of rabbit granulocyte peptides (Table III), S. aureus 566; format: cell-based; conditions: 50 μg/ml, 20 min, 37° C., 10 mM sodium phosphate buffer pH 7.4
Experimental: as §1

[4] = test system: Bordetella bronchiseptica UCLA-342; assay: Antibacterial activity of rabbit granulocyte peptides (Table III), B. bronchiseptica; format: cell-based; conditions: 50 μg/ml, 20 min, 37° C., 10 mM sodium phosphate buffer pH 7.4
Experimental: as §1

[5] = test system: Streptococcus agalactiae Type-I-A; assay: Antibacterial activity of rabbit granulocyte peptides (Table III), S. agalactiae Type-I-A; format: cell-based; conditions: 50 μg/ml, 20 min; for Bactericidal activity log10 No /N, Streptococcus agalactiae Type 1A, pH 5.8: 10 mM phosphate buffer pH 5.8; for Bactericidal activity log10 No /N, Streptococcus agalactiae Type-I-A: 37° C., 10 mM sodium phosphate buffer pH 7.4; for Bactericidal activity log10 No /N, Streptococcus agalactiae Type 1A, "High" ionic strength: buffer pH 7.4 supplemented with 0.14 M NaCl
Experimental: as §1

[6] = test system: Escherichia coli ATCC 29648; assay: Antibacterial activity of rabbit granulocyte peptides (Table III), E. coli; format: cell-based; conditions: 50 μg/ml, 20 min, 37° C., 10 mM sodium phosphate buffer pH 7.4
Experimental: as §1

[7] = test system: Hemophilus influenzae Type 3A; assay: Antibacterial activity of rabbit granulocyte peptides (Table III), H. influenzae; format: cell-based; conditions: 50 μg/ml, 20 min, 37° C., 10 mM sodium phosphate buffer pH 7.4
Experimental: as §1

[8] = test system: Listeria monocytogenes 450; assay: Antibacterial activity of rabbit granulocyte peptides (Table III), L. monocytogenes; format: cell-based; conditions: 50 μg/ml, 20 min; for Bactericidal activity log10 No /N, Listeria monocytogenes 450, pH 5.8: 10 mM phosphate buffer pH 5.8; for Bactericidal activity log10 No /N, Listeria monocytogenes 450: 37° C., 10 mM sodium phosphate buffer pH 7.4; for Bactericidal activity log10 No /N, Listeria monocytogenes 450, "High" ionic strength: buffer pH 7.4 supplemented with 0.14 M NaCl
Experimental: as §1

[9] = test system: Staphylococcus aureus 502A; assay: Antibacterial activity of rabbit granulocyte peptides (Table III), S. aureus 502A; format: cell-based; conditions: 50 μg/ml, 20 min, 37° C., 10 mM sodium phosphate buffer pH 7.4
Experimental: as §1

Serratia marcescens = assay: Antibacterial activity of rabbit granulocyte peptides (Table III), S. marcescens; format: cell-based; conditions: 50 μg/ml, 20 min, 37° C., 10 mM sodium phosphate buffer pH 7.4
Experimental: as §1

[10] = test system: Streptococcus agalactiae Type IIIU; assay: Antibacterial activity of rabbit granulocyte peptides (Table III), S. agalactiae Type IIIU; format: cell-based; conditions: 50 μg/ml, 20 min, 37° C., 10 mM sodium phosphate buffer pH 7.4
Experimental: as §1

[11] = test system: Staphylococcus aureus J.F.; assay: Antibacterial activity of rabbit granulocyte peptides (Table III), S. aureus J.F.; format: cell-based; conditions: 50 μg/ml, 20 min, 37° C., 10 mM sodium phosphate buffer pH 7.4
Experimental: as §1

[12] = test system: Klebsiella pneumoniae ATCC 13883; assay: Antibacterial activity of rabbit granulocyte peptides (Table III), K. pneumoniae; format: cell-based; conditions: 50 μg/ml, 20 min; for Bactericidal activity log10 No /N, Klebsiella pneumoniae ATCC 13883, pH 5.8: 10 mM phosphate buffer pH 5.8; for Bactericidal activity log10 No /N, Klebsiella pneumoniae ATCC 13883: 37° C., 10 mM sodium phosphate buffer pH 7.4; for Bactericidal activity log10 No /N, Klebsiella pneumoniae ATCC 13883, "High" ionic strength: buffer pH 7.4 supplemented with 0.14 M NaCl
Experimental: as §1

[13] = test system: Streptococcus pneumoniae Type III; assay: Antibacterial activity of rabbit granulocyte peptides (Table III), S. pneumoniae; format: cell-based; conditions: 50 μg/ml, 20 min, 37° C., 10 mM sodium phosphate buffer pH 7.4
Experimental: as §1

L. monocytogenes = assay: Antibacterial action, % killing (Table II), L. monocytogenes; format: cell-based, Listeria monocytogenes; conditions: 50 μg/ml peptide, 10^7 bacterial cells/ml, 20 min, 37°
Experimental: (§2) To test antibacterial action of the polypeptides, the following protocol was employed. Various species at 10^7 bacterial cells/ml are incubated for 20 min at 37° with 50 μg/ml of the candidate peptide. Colony counts (viable organisms) are made at the outset of the incubation--beforeaddition of the candidate peptide--and after 20 min of incubation with the candidate peptide.

S. albus = assay: Antibacterial action, % killing (Table II), S. albus; format: cell-based, Staphylococcus albus; conditions: 50 μg/ml peptide, 10^7 bacterial cells/ml, 20 min, 37°
Experimental: as §2

H. influenzae = assay: Antibacterial action, % killing (Table II), H. influenzae; format: cell-based, Haemophilus influenzae; conditions: 50 μg/ml peptide, 10^7 bacterial cells/ml, 20 min, 37°
Experimental: as §2

E. coli = assay: Antibacterial action, % killing (Table II), E. coli; format: cell-based, Escherichia coli; conditions: 50 μg/ml peptide, 10^7 bacterial cells/ml, 20 min, 37°
Experimental: as §2

S. aureus 502A = assay: Antibacterial action, % killing (Table II), S. aureus 502A; format: cell-based, Staphylococcus aureus; conditions: 50 μg/ml peptide, 10^7 bacterial cells/ml, 20 min, 37°
Experimental: as §2

Ps. aeruginosa = assay: Antibacterial action, % killing (Table II), Ps. aeruginosa; format: cell-based, Pseudomonas aeruginosa; conditions: 50 μg/ml peptide, 10^7 bacterial cells/ml, 20 min, 37°
Experimental: as §2

S. marscescens = assay: Antibacterial action, % killing (Table II), S. marscescens; format: cell-based, Serratia marscescens; conditions: 50 μg/ml peptide, 10^7 bacterial cells/ml, 20 min, 37°
Experimental: as §2

Substance	Bactericidal activity log10 No /N, Staphylococcus epidermidis UCLA-622 [1] [log10]	Bactericidal activity log10 No /N, Pseudomonas aeruginosa PAO 579, pH 5.8 [2] [log10]	Bactericidal activity log10 No /N, Pseudomonas aeruginosa PAO 579 [2] [log10]	Bactericidal activity log10 No /N, Pseudomonas aeruginosa PAO 579, "High" ionic strength [2] [log10]	Bactericidal activity log10 No /N, Staphylococcus aureus 566 [3] [log10]	Bactericidal activity log10 No /N, Bordetella bronchiseptica UCLA-342 [4] [log10]	Bactericidal activity log10 No /N, Streptococcus agalactiae Type 1A, pH 5.8 [5] [log10]	Bactericidal activity log10 No /N, Streptococcus agalactiae Type-I-A [5] [log10]	Bactericidal activity log10 No /N, Streptococcus agalactiae Type 1A, "High" ionic strength [5] [log10]	Bactericidal activity log10 No /N, Escherichia coli ATCC 29648 [6] [log10]	Bactericidal activity log10 No /N, Hemophilus influenzae Type 3A [7] [log10]	Bactericidal activity log10 No /N, Listeria monocytogenes 450, pH 5.8 [8] [log10]	Bactericidal activity log10 No /N, Listeria monocytogenes 450 [8] [log10]	Bactericidal activity log10 No /N, Listeria monocytogenes 450, "High" ionic strength [8] [log10]	Bactericidal activity log10 No /N, Staphylococcus aureus 502A [9] [log10]	Bactericidal activity log10 No /N, Serratia marcescens (Serratia marcescens) [log10]	Bactericidal activity log10 No /N, Streptococcus agalactiae Type IIIU [10] [log10]	Bactericidal activity log10 No /N, Staphylococcus aureus J.F. [11] [log10]	Bactericidal activity log10 No /N, Klebsiella pneumoniae ATCC 13883, pH 5.8 [12] [log10]	Bactericidal activity log10 No /N, Klebsiella pneumoniae ATCC 13883 [12] [log10]	also measured
IFN-α [reference compound]	–	–	–	–	–	–	–	–	–	–	–	–	–	–	–	–	–	–	–	–	decrease in VSV yield (VSV): 6 log10; decrease in HSV-1 yield (HSV-1): 0.6 log10
val phe cys thr cys arg gly phe leu cys gly ser gly glu arg ala ser gly ser cys thr ile asn gly val arg his thr leu cys cys arg [NP-5]	0.4	0.1	0.7	0.0	0.4	0.0	0.0	0.5	0.0	0.2	1.2	0.1	0.5	0.2	0.2	1.2	0.4	0.1	0.1	1.2	Bactericidal activity log10 No /N, Klebsiella pneumoniae ATCC 13883, "High" ionic strength [12]: 0.0 log10; Bactericidal activity log10 No /N, Streptococcus pneumoniae Type III [13]: 1.9 log10
val val cys ala cys arg arg ala leu cys leu pro arg glu arg arg ala gly phe cys arg ile arg gly arg ile his pro leu cys cys arg arg [NP-1]	> 4.1	0.3	> 4.2	0.1	> 4.1	0.1	0.1	2.3	0.0	1.9	> 1.1	0.2	2.1	0.1	2.3	1.0	3.9	2.7	0.6	3.0	% Killing, L. monocytogenes (L. monocytogenes): A (>99% killing); % Killing, S. albus (S. albus): B (90-99% killing); % Killing, H. influenzae (H. influenzae): A (>99% killing); % Killing, E. coli (E. coli): B (90-99% killing); % Killing, S. aureus 502A (S. aureus 502A): D (<50% killing); % Killing, Ps. aeruginosa (Ps. aeruginosa): A (>99% killing); Bactericidal activity log10 No /N, Klebsiella pneumoniae ATCC 13883, "High" ionic strength [12]: 0.1 log10; Bactericidal activity log10 No /N, Streptococcus pneumoniae Type III [13]: 3.8 log10
gly arg cys val cys arg lys gln 21eu cys ser tyr arg glu arg arg ile gly asp cys lys ile arg gly val arg phe pro phe cys cys pro arg [NP-3b]	1.7	0.0	4.2	0.0	1.7	0.1	0.2	0.9	0.0	1.4	0.7	0.0	4.3	0.0	0.3	0.7	1.2	0.8	0.2	3.4	% Killing, L. monocytogenes (L. monocytogenes): B (90-99% killing); % Killing, S. albus (S. albus): D (<50% killing); % Killing, E. coli (E. coli): C (50-90% killing); % Killing, S. aureus 502A (S. aureus 502A): D (<50% killing); % Killing, Ps. aeruginosa (Ps. aeruginosa): A (>99% killing); % Killing, S. marscescens (S. marscescens): B (90-99% killing); Bactericidal activity log10 No /N, Klebsiella pneumoniae ATCC 13883, "High" ionic strength [12]: 0.0 log10; Bactericidal activity log10 No /N, Streptococcus pneumoniae Type III [13]: > 3.5 log10
val ser cys thr cys arg arg phe ser cys gly phe gly glu arg ala ser gly ser cys thr val asn gly val arg his thr leu cys cys arg arg [NP-4]	0.2	0.0	0.2	0.0	0.2	0.1	0.0	0.1	0.0	0.1	1.3	0.0	0.1	0.0	0.1	1.3	0.2	0.1	0.3	0.2	Bactericidal activity log10 No /N, Klebsiella pneumoniae ATCC 13883, "High" ionic strength [12]: 0.0 log10; Bactericidal activity log10 No /N, Streptococcus pneumoniae Type III [13]: 4.3 log10
